# Patent US6140362A, “Method for inhibiting the growth of mammalian cells” (Rohm and Haas Company, priority 1997, dated 2000)
# Read-outs that look alike come from different tables or passages of the source.
# How the values were obtained:
# [1] = tested on: mouse lymphoma cell line L5178Y; assay: Growth inhibition of mouse lymphoma cells (L5178Y), 48 h; type: cell-based; conditions: for inhibition at 2 µM: 2 micromolar; for inhibition at 4 µM: 4 micromolar; for inhibition at 10 µM: read-out: Inhibition of growth; for inhibition at 20 µM: 20 micromolar
# Experimental: Effects of compounds on growth of mouse lymphoma cell line L5178Y, were determined as follows. Cells were grown in Fischer's medium (obtained from Life Technologies, Inc., Gaithersburg, Md.) containing 0.24 grams per liter (g/l) sodium pyruvate, 1.12 g/l surfactant (Pluronic F-68, from BASF Corporation, Parsippany, N.J.), and 10% by volume (10% v/v) heat-inactivated horse serum (obtained from Life Technologies, Inc) at 37° C. To 30 ml aliquots of cell suspension (2×10^4 cells per milliliter (mL)) in exponential growth phase were added test compounds dissolved in dimethylsulfoxide (DMSO) at various concentrations such that the final DMSO concentration in the mixtures was 0.25%. Tubes were gassed with 5% CO2 then incubated on a roller drum apparatus. After 48 hours the cells were treated with 0.1% trypsin (Life Technologies, Inc.,) for 10 minutes and counted in a Coulter Counter equipped with a 140 micrometer (μM) aperture. Percent inhibition of growth was calculated by comparing the number of cells in assays containing test compound with the number of cells in controls lacking the test compound.
# Leukemia (SR) = assay: Growth inhibition of human tumor cell lines: Leukemia (SR); type: cell-based; conditions: cell line A = Leukemia (SR), NCI testing
# Experimental: (§1) Selected compounds were evaluated by the National Cancer Institute, Bethesda, Md. against 60 human tumor cell lines according to procedures described in Principles and Practices of Oncology, volume 3, issue number 10, pp. 1-12. Results of the testing against representative cell lines including the test compound number, and the GI50 values (μM) are set forth in Table 3. The GI50 value is the concentration required to inhibit cell growth by 50% as compared to untreated control cultures.
# [2] = tested on: Nonsmall cell lung cancer (NCIH522); assay: Growth inhibition of human tumor cell lines: Nonsmall cell lung cancer (NCIH522); type: cell-based; conditions: NCI-H522, cell line B = Nonsmall cell lung cancer (NCIH522), NCI testing
# Experimental: as §1
# [3] = tested on: Small cell lung cancer (DMS 114); assay: Growth inhibition of human tumor cell lines: Small cell lung cancer (DMS 114); type: cell-based; conditions: cell line C = Small cell lung cancer (DMS 114), NCI testing
# Experimental: as §1
# Colon cancer (HCT116) = assay: Growth inhibition of human tumor cell lines: Colon cancer (HCT116); type: cell-based; conditions: HCT-116, cell line D = Colon cancer (HCT116), NCI testing
# Experimental: as §1
# CNS cancer (SF539) = assay: Growth inhibition of human tumor cell lines: CNS cancer (SF539); type: cell-based; conditions: SF-539, cell line E = CNS cancer (SF539), NCI testing
# Experimental: as §1
# Melanoma (SKMEL-2) = assay: Growth inhibition of human tumor cell lines: Melanoma (SKMEL-2); type: cell-based; conditions: SK-MEL-2, cell line F = Melanoma (SKMEL-2), NCI testing
# Experimental: as §1
# Ovarian cancer (OVCAR8) = assay: Growth inhibition of human tumor cell lines: Ovarian cancer (OVCAR8); type: cell-based; conditions: OVCAR-8, cell line G = Ovarian cancer (OVCAR8), NCI testing
# Experimental: as §1
# Renal cancer (CAKI1) = assay: Growth inhibition of human tumor cell lines: Renal cancer (CAKI1); type: cell-based; conditions: CAKI-1, cell line H = Renal cancer (CAKI1), NCI testing
# Experimental: as §1
# tubulin = assay: Inhibition of microtubule assembly; type: biochemical, calf; conditions: preincubated 1 h at 37° C.
# Experimental: Compounds were evaluated for their ability to inhibit tubulin assembly into microtubules by comparing the extent of cold-reversible assembly in the presence of each test compound with controls lacking the test compound. Tubulin was isolated from calf brain tissue by two cycles of assembly/disassembly as described by Vallee, R. B. in Methods in Enzymology, vol. 134, pp. 89-104. Assay mixtures contained 1 mg/ml of purified tubulin in 1 M sodium glutamate, pH 6.6, 1 millimolar (mM) MgCl2, and the test compound, which was added as a solution in DMSO. The final concentration of DMSO in each assay was 2% (v/v). Assay mixtures were preincubated at 37° C. for 1 h, then chilled on ice for 5 min. Microtubule assembly was initiated by addition of guanosine triphosphate (0.1 mM), and incubation at 37° C. Assembly was followed turbidimetrically at 350 nm for 20 minutes (min) using a temperature-controlled cell in a Cary 2200 spectrophotometer. Since microtubules undergo depolymerization at 0° C., assembly was confirmed by measuring the reduction in turbidity following incubation for 30 min at 0° C. The difference in absorbance before and after incubation for 30 min at 0° C. (ΔA350) represents the extent of microtubule assembly. Inhibition of assembly was calculated by subtracting the (ΔA350) values for treatments with test compounds from the (ΔA350) for controls without test compound, and expressing this difference as a percentage of the (ΔA350) value for the control. Results including test compound number, test compound concentration in micromoles per liter (μM) and percent inhibition are set forth in Table 11.
smiles,measurement,setting,value
CCC(C)(NC(=O)c1ccc(NC(=O)OC)cc1)C(=O)CCl (centres unmarked) [Compound 1],inhibition at 2 µM,[1]; 48 hours,92%
CCC(C)(NC(=O)c1cc(Cl)cc(C#N)c1)C(=O)CCl (centres unmarked) [Compound 3],inhibition at 2 µM,[1]; 48 hours,94%
CCC(C)(NC(=O)c1cc(Cl)cc(C=NOC)c1)C(=O)CCl (centres unmarked) [Compound 4],inhibition at 2 µM,[1]; 48 hours,95%
same,GI50,Leukemia (SR),590 nM
same,GI50,[2],2140 nM
same,GI50,[3],1540 nM
same,GI50,Colon cancer (HCT116),2580 nM
same,GI50,CNS cancer (SF539),2310 nM
same,GI50,Melanoma (SKMEL-2),3240 nM
same,GI50,Ovarian cancer (OVCAR8),2620 nM
same,GI50,Renal cancer (CAKI1),3070 nM
same,Percent inhibition of microtubule assembly,tubulin; 50 μM,89.8%
CCC(C)(NC(=O)c1cc(C)cc(Br)c1)C(=O)CCl (centres unmarked) [Compound 5],inhibition at 2 µM,[1]; 48 hours,91%
same,Percent inhibition of microtubule assembly,tubulin; 50 μM,88.7%
CCCC(NC(=O)c1cc(Cl)cc(Cl)c1)C(=O)C(Br)Br (centres unmarked) [Compound 6],inhibition at 2 µM,[1]; 48 hours,75%
CCC(C)(NC(=O)c1cccc(Br)c1)C(=O)C(Br)Br (centres unmarked) [Compound 7],inhibition at 2 µM,[1]; 48 hours,92%
same,GI50,Leukemia (SR),2320 nM
same,GI50,[2],1080 nM
same,GI50,[3],1830 nM
same,GI50,Colon cancer (HCT116),3390 nM
same,GI50,CNS cancer (SF539),2290 nM
same,GI50,Melanoma (SKMEL-2),2740 nM
same,GI50,Ovarian cancer (OVCAR8),3010 nM
same,GI50,Renal cancer (CAKI1),2820 nM
same,Percent inhibition of microtubule assembly,tubulin; 5 μM,97.0%
CC(C)C(C)(NC(=O)c1cc(Cl)cc(Cl)c1)C(=O)C(Br)Br (centres unmarked) [Compound 8],inhibition at 2 µM,[1]; 48 hours,83%
CC(C)CC(C)(NC(=O)c1cc(Cl)cc(Cl)c1)C(=O)C(Br)Br (centres unmarked) [Compound 9],inhibition at 2 µM,[1]; 48 hours,97%
CCCCCC(C)(NC(=O)c1cc(Cl)cc(Cl)c1)C(=O)C(Br)Br (centres unmarked) [Compound 10],inhibition at 2 µM,[1]; 48 hours,96%
CCCC(C)(NC(=O)c1cc(Cl)cc(Cl)c1)C(=O)C(Br)Br (centres unmarked) [Compound 11],inhibition at 2 µM,[1]; 48 hours,88%
CCC(CC)(NC(=O)c1cc(Cl)cc(Cl)c1)C(=O)C(Br)Br [Compound 12],inhibition at 2 µM,[1]; 48 hours,85%
CCC(C)(NC(=O)c1cc(Cl)cc(Cl)c1)C(=O)C(Br)Br (centres unmarked) [Compound 13],inhibition at 2 µM,[1]; 48 hours,98%
same,GI50,Leukemia (SR),280 nM
same,GI50,[2],280 nM
same,GI50,[3],240 nM
same,GI50,Colon cancer (HCT116),1390 nM
same,GI50,CNS cancer (SF539),1900 nM
same,GI50,Melanoma (SKMEL-2),2080 nM
same,GI50,Ovarian cancer (OVCAR8),1820 nM
same,GI50,Renal cancer (CAKI1),1920 nM
same,Percent inhibition of microtubule assembly,tubulin; 5 μM,90.9%
CC(C)(NC(=O)c1cc(Cl)cc(Cl)c1)C(=O)C(Cl)Br (centres unmarked) [Compound 15],inhibition at 2 µM,[1]; 48 hours,90%
same,GI50,Leukemia (SR),2850 nM
same,GI50,[2],1290 nM
same,GI50,[3],6650 nM
same,GI50,Colon cancer (HCT116),10400 nM
same,GI50,CNS cancer (SF539),10800 nM
same,GI50,Melanoma (SKMEL-2),16600 nM
same,GI50,Ovarian cancer (OVCAR8),12100 nM
same,GI50,Renal cancer (CAKI1),10800 nM
same,Percent inhibition of microtubule assembly,tubulin; 50 μM,94.6%
CC(C)(NC(=O)c1ccccc1)C(=O)C(Br)Br [Compound 16],inhibition at 2 µM,[1]; 48 hours,98%
"CCC(C)(NC(=O)c1cc(Cl)c(N)c(C=NOC)c1)C(=O)CCl (centres unmarked) [Compound 18, 4-amino-3-chloro-5-methoxyiminomethyl-N-(3-chloro-1-ethyl-1-methyl-2-oxopropyl)benzamide]",inhibition at 2 µM,[1]; 48 hours,94%
CCC(C)(NC(=O)c1cccc(C#N)c1)C(=O)CCl (centres unmarked) [Compound 20],inhibition at 4 µM,[1]; 48 hours,96%
CCC(C)(NC(=O)c1cc(Br)c(C)c(Br)c1)C(=O)CCl (centres unmarked) [Compound 21],inhibition at 4 µM,[1]; 48 hours,97%
CCC(C)(NC(=O)c1cccc(NC(=O)OC)c1)C(=O)CCl (centres unmarked) [Compound 22],inhibition at 10 µM,"[1]; 10 micromolar, 48 hours",96%
CCC(C)(NC(=O)c1cccc(C=NOC)c1)C(=O)CCl (centres unmarked) [Compound 24],inhibition at 10 µM,"[1]; 10 micromolar, 48 hours",96%
CCC(C)(NC(=O)c1cc(C)cc(Cl)c1)C(=O)CCl (centres unmarked) [Compound 25],inhibition at 10 µM,"[1]; 10 micromolar, 48 hours",95%
same,Percent inhibition of microtubule assembly,tubulin; 50 μM,30.9%
CC(C)(NC(=O)c1cc(Cl)cc(Cl)c1)C(=O)CN=C=S [Compound 27],inhibition at 10 µM,[1]; 48 h,61%
CC(C)(NC(=O)c1cc(Cl)cc(Cl)c1)C(=O)CBr [Compound 29],inhibition at 10 µM,"[1]; 10 micromolar, 48 hours",95%
CCC(C)(NC(=O)c1cc(Cl)c(C)c(Br)c1)C(=O)CCl (centres unmarked) [Compound 30],inhibition at 20 µM,[1]; 48 hours,97%
CCC(C)(NC(=O)c1cc(Cl)c(F)c(Cl)c1)C(=O)CCl (centres unmarked) [Compound 31],inhibition at 20 µM,[1]; 48 hours,97%
CCC(C)(NC(=O)c1cc(Cl)c(C)c(Cl)c1)C(=O)CCl (centres unmarked) [Compound 32],inhibition at 20 µM,[1]; 48 hours,96%
CCC(C)(NC(=O)c1cc(Cl)c(Cl)c(Cl)c1)C(=O)CCl (centres unmarked) [Compound 33],inhibition at 20 µM,[1]; 48 hours,94%
same,Percent inhibition of microtubule assembly,tubulin; 50 μM,12.2%
